Assay results as given in publication PMC11347161, “Sequence diversity of apidaecin-like peptides arresting the terminating ribosome” (Nucleic Acids Research, 2024).
Values after ≈ are worked out from the molar mass of the structure shown. Residues, ends and D or L forms follow the SMILES beside them. No end group written: not given here. *: point of attachment. Orn(α-tetramethylguanidino) = CN(C)C(=N[C@@H](CCCN)C(=O)*)N(C)C

Test system: E. coli, BL21 cells
Type: cell-based
Conditions: for MIC, TSB / MIC, LB / MIC, RPMI/Serum: E. coli BL21, broth microdilution, conducted in triplicate; for MIC, TSB: 33% TSB medium; for MIC, LB: LB medium; for MIC, RPMI/Serum: RPMI/Serum medium (RPMI-1640:MHB:FBS = 100:5:20)
Procedure: The E. coli strain CA244 (lacZ125(Am), e14-, trpA49(Am), relA1, spoT1) was obtained from Escherichia coli Genetic Stock Center. The E. coli BL21(DE3) electrocompetent cells were from Sigma. The following media and components were implemented for bacteria growth: lysogeny broth (LB), minimal M9 medium, Tryptic Soy Broth (TSB), Roswell Park Memorial Institute medium 1640 (RPMI-1640), Mueller Hinton Broth (MHB), Fetal Bovine Serum (FBS). For various experiments E. coli cells were grown either in LB, in 33% TSB ([21]), in M9 medium supplemented with 1% Glycerol, 1 mM MgSO4, 0.1 mM CaCl2 and 10 μg/ml thiamine, or in RPMI/Serum (RPMI-1640:MHB:FBS = 100:5:20) ([23]).
The minimal inhibitory concentration (MIC) test was performed using the broth microdilution method, adapted from the previously described procedure ([28]). The MIC tests were conducted in triplicate either in LB, 33% TSB or RPMI/Serum media.
In order to quantitatively assess the antimicrobial activity of the synthesized peptides identified by both, the negative and positive selection strategies, we determined their minimal inhibitory concentrations (MICs) for the E. coli BL21 cells in three different media: LB, as a standard laboratory medium, 33% TSB, as a medium in which PrAMPs show increased antibacterial properties ([21]), and in the more therapeutically relevant RPMI/serum media ([23]) (Table 1). […] It appears, therefore, that the positive selection strategy is more prone to identifying biologically active peptides in comparison with the negative selection approaches. Furthermore, it became apparent that some multiple substitutions can even improve the antibacterial properties of the Api-like peptides.

Row | Molecule | MIC, TSB [µM] | MIC, LB [µM] | MIC, RPMI/Serum [µM] | MIC values relative to wt Api (E. coli BL21, peptides from depletion selection)
1 | CC[C@H](C)[C@H](NC(=O)[C@H](Cc1ccc(O)cc1)NC(=O)[C@@H](NC(=O)[C@@H]1CCCN1C(=O)[C@H](CCCNC(=N)N)NC(=O)[C@H](CC(N)=O)NC(=O)[C@H](CCCCN)NC(=O)[C@H](CCCN)N=C(N(C)C)N(C)C)C(C)C)C(=O)N[C@@H](CC(N)=O)C(=O)N[C@@H](CCC(N)=O)C(=O)N1CCC[C@H]1C(=O)N[C@@H](CCCNC(=N)N)C(=O)N[C@@H](CCC(=O)O)C(=O)N1CCC[C@H]1C(=O)N[C@@H](Cc1c[nH]cn1)C(=O)N1CCC[C@H]1C(=O)N[C@@H](CCCNC(=N)N)C(=O)N[C@@H](CC(C)C)C(=O)O [Peptide K2N9E13] ({Orn(α-tetramethylguanidino)}-KNRPVYINQPREPHPRL-OH; C-terminus assumed) | >64 | >64 | >64 | 
2 | CC(C)C[C@H](NC(=O)[C@H](CCCNC(=N)N)NC(=O)[C@@H]1CCCN1C(=O)[C@H](Cc1c[nH]c2ccccc12)NC(=O)[C@@H]1CCCN1C(=O)[C@@H]1CCCN1C(=O)[C@H](CCCNC(=N)N)NC(=O)[C@@H]1CCCN1C(=O)[C@H](CCC(N)=O)NC(=O)[C@@H]1CCCN1C(=O)[C@H](CC(=O)O)NC(=O)[C@H](CC(N)=O)NC(=O)[C@@H](NC(=O)[C@H](CCCNC(=N)N)NC(=O)[C@H](CCCNC(=N)N)NC(=O)[C@H](CC(N)=O)NC(=O)[C@H](CC(N)=O)NC(=O)[C@H](CCCN)N=C(N(C)C)N(C)C)[C@@H](C)O)C(=O)O [Peptide R5T6N7D8W15] ({Orn(α-tetramethylguanidino)}-NNRRTNDPQPRPPWPRL-OH; C-terminus assumed) | >64 | >64 | >64 | 
3 | CC[C@H](C)[C@H](NC(=O)[C@H](Cc1ccc(O)cc1)NC(=O)[C@@H](NC(=O)[C@@H]1CCCN1C(=O)[C@H](CCCNC(=N)N)NC(=O)[C@H](CC(N)=O)NC(=O)[C@H](CC(N)=O)NC(=O)[C@H](CCCN)N=C(N(C)C)N(C)C)C(C)C)C(=O)NCC(=O)N[C@@H](CCC(=O)O)C(=O)N1CCC[C@H]1C(=O)N[C@@H](CCCNC(=N)N)C(=O)N1CCC[C@H]1C(=O)N1CCC[C@H]1C(=O)N[C@@H](CC(N)=O)C(=O)N1CCC[C@H]1C(=O)N[C@@H](CCCNC(=N)N)C(=O)N[C@@H](CC(C)C)C(=O)O [Peptide G9E10N15] ({Orn(α-tetramethylguanidino)}-NNRPVYIGEPRPPNPRL-OH; C-terminus assumed) | >64 | >64 | >64 | 
4 | CC[C@H](C)[C@H](NC(=O)CNC(=O)[C@@H](NC(=O)[C@H](CCC(=O)O)NC(=O)[C@H](CCC(N)=O)NC(=O)[C@H](CC(N)=O)NC(=O)[C@H](CC(N)=O)NC(=O)[C@H](CCCN)N=C(N(C)C)N(C)C)C(C)C)C(=O)N[C@@H](CCSC)C(=O)N[C@@H](CCC(N)=O)C(=O)N1CCC[C@H]1C(=O)N[C@@H](CCCNC(=N)N)C(=O)N1CCC[C@H]1C(=O)N1CCC[C@H]1C(=O)N[C@@H](Cc1c[nH]cn1)C(=O)N1CCC[C@H]1C(=O)N[C@@H](CCCNC(=N)N)C(=O)N[C@@H](CC(C)C)C(=O)O [Peptide Q4E5G7M9] ({Orn(α-tetramethylguanidino)}-NNQEVGIMQPRPPHPRL-OH; C-terminus assumed) | >64 | >64 | >64 | 
5 | GNNRPVECPQPRPRVPRL [Peptide E7C8R14V15] | >64 | >64 | >64 | 
6 | GNRRPVYIPVPRPPYPRL [Peptide R3V10Y15] | 2 | 8 | 2 | 
7 | CC[C@H](C)[C@H](NC(=O)[C@H](Cc1ccc(O)cc1)NC(=O)[C@H](CCCCN)NC(=O)[C@@H]1CCCN1C(=O)[C@H](CCCNC(=N)N)NC(=O)[C@H](CC(N)=O)NC(=O)[C@H](CC(N)=O)NC(=O)[C@H](CCCN)N=C(N(C)C)N(C)C)C(=O)N1CCC[C@H]1C(=O)N[C@@H](CCSC)C(=O)N1CCC[C@H]1C(=O)N[C@@H](CCCNC(=N)N)C(=O)N1CCC[C@H]1C(=O)N1CCC[C@H]1C(=O)N[C@@H](Cc1c[nH]cn1)C(=O)N1CCC[C@H]1C(=O)N[C@@H](CCCNC(=N)N)C(=O)N[C@@H](CC(C)C)C(=O)O [Peptide K6M10] ({Orn(α-tetramethylguanidino)}-NNRPKYIPMPRPPHPRL-OH; C-terminus assumed) | 0.5 (≈ 1.15 µg/mL) | 8 (≈ 18.4 µg/mL) | 1 (≈ 2.3 µg/mL) | comparable to those of wt Api
8 | CC[C@H](C)[C@H](NC(=O)[C@H](Cc1ccc(O)cc1)NC(=O)[C@@H](NC(=O)[C@@H]1CCCN1C(=O)[C@H](CCCNC(=N)N)NC(=O)[C@H](CC(N)=O)NC(=O)[C@H](CC(N)=O)NC(=O)[C@H](CCCN)N=C(N(C)C)N(C)C)C(C)C)C(=O)N1CCC[C@H]1C(=O)N[C@@H](CCCNC(=N)N)C(=O)N1CCC[C@H]1C(=O)N[C@@H](CCCNC(=N)N)C(=O)N1CCC[C@H]1C(=O)N1CCC[C@H]1C(=O)N[C@@H](Cc1c[nH]cn1)C(=O)N1CCC[C@H]1C(=O)N[C@@H](CCCNC(=N)N)C(=O)N[C@@H](CC(C)C)C(=O)O [Api 137, reference compound] ({Orn(α-tetramethylguanidino)}-NNRPVYIPRPRPPHPRL-OH; N-terminus and C-terminus assumed) | 0.25 (≈ 0.573 µg/mL) | 4 (≈ 9.17 µg/mL) | 0.0625 (≈ 0.143 µg/mL) | 
9 | CC[C@H](C)[C@H](NC(=O)[C@H](Cc1ccc(O)cc1)NC(=O)[C@@H](NC(=O)[C@H](CCCNC(=N)N)NC(=O)[C@H](CCCNC(=N)N)NC(=O)[C@H](CC(N)=O)NC(=O)[C@H](CC(N)=O)NC(=O)[C@H](CCCN)N=C(N(C)C)N(C)C)C(C)C)C(=O)N1CCC[C@H]1C(=O)N[C@@H](CCC(N)=O)C(=O)N1CCC[C@H]1C(=O)N[C@@H](CCCNC(=N)N)C(=O)N[C@@H](CC(N)=O)C(=O)N1CCC[C@H]1C(=O)N[C@@H](Cc1c[nH]cn1)C(=O)N[C@@H](CC(C)C)C(=O)N[C@@H](CCCNC(=N)N)C(=O)N[C@@H](CC(C)C)C(=O)O [Peptide R5N13L16] ({Orn(α-tetramethylguanidino)}-NNRRVYIPQPRNPHLRL-OH; C-terminus assumed) | >64 | >64 | >64 | 
10 | CC[C@H](C)[C@H](NC(=O)[C@H](Cc1ccc(O)cc1)NC(=O)[C@@H](NC(=O)[C@H](Cc1c[nH]c2ccccc12)NC(=O)[C@H](CCCNC(=N)N)NC(=O)[C@H](CC(N)=O)NC(=O)[C@H](CC(N)=O)NC(=O)[C@H](CCCN)N=C(N(C)C)N(C)C)C(C)C)C(=O)N[C@@H](CC(N)=O)C(=O)N[C@H](C(=O)N1CCC[C@H]1C(=O)N[C@@H](CCCNC(=N)N)C(=O)N[C@@H](CO)C(=O)N1CCC[C@H]1C(=O)N[C@@H](Cc1c[nH]cn1)C(=O)N1CCC[C@H]1C(=O)N[C@@H](CCCNC(=N)N)C(=O)N[C@@H](CC(C)C)C(=O)O)[C@@H](C)O [Peptide W5N9T10S13] ({Orn(α-tetramethylguanidino)}-NNRWVYINTPRSPHPRL-OH; C-terminus assumed) | >64 | >64 | >64 | 
